For one assay, the target named is T1, oxytocin receptors (Rattus norvegicus, UniProt P70536).
T1 construct: The uteri are dissected out, cleaned of fat and connective tissues; from tissue; host or cells: uterus of DES-treated female Sprague-Dawley rats
T1 sequence (P70536 1-388): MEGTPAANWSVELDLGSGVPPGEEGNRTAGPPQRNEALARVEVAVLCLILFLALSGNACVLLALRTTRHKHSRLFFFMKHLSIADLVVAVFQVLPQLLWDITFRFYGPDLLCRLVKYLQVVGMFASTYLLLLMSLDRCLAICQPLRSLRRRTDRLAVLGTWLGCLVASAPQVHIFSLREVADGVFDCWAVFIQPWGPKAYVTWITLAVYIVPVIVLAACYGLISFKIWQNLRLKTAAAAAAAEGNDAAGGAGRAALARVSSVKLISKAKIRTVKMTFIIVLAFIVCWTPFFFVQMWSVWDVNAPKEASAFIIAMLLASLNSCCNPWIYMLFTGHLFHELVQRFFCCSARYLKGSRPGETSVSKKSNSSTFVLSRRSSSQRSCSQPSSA
The experiment in a line: Oxytocin Receptor Binding. As to conditions: for IC50: 1.0 nM [3H]oxytocin. How it is done:
Oxytocin Receptor Binding
Female Sprague-Dawley rats weighing approximately 200-250 g are injected intramuscularly (i.m.) with 0.3 mg/kg of body weight of diethylstilbestrol (DES). The rats are sacrificed 18 hours later under pentobarbital anesthesia. The uteri are dissected out, cleaned of fat and connective tissues and rinsed in 50 ml of normal saline. The tissue pooled from six rats is homogenized in 50 ml of […] Tris.HCl, containing 0.5 mM dithiothreitol and 1.0 mM EDTA, adjusted to pH 7.4, using a polytron at setting 6 with three passes of 10 sec each. The homogenate is passed through two (2) layers of cheesecloth and the filtrate centrifuged at 1000× g for 10 min. The clear supernatant is removed and recentrifuged at 165,000× g for 30 min. The resulting pellet containing the oxytocin receptors is resuspended in 50.0 mM Tris.HCl containing 5.0 mM MgCl2 at pH 7.4, to give a protein concentration of 2.5 mg/ml of tissue suspension. This preparation is used in subsequent binding assays with [^3 H]Oxytocin.
Binding of 3,5-[^3 H]Oxytocin ([^3 H]OT) to its receptors is done in microtiter plates using [^3 H]OT, at various concentrations, in an assay buffer of 50.0 mM Tris.HCl, pH 7.4 and containing 5.0 mM MgCl2, and a mixture of protease inhibitors: BSA, 0.1 mg; aprotinin, 1.0 mg; 1,10-phenanthroline, 2.0 mg; […], 10.0 mg; and PMSF, 0.3 mg per 100 ml of buffer solution. Non-specific binding is determined in the presence of 1.0 uM unlabeled OT. The binding reaction is terminated after 60 min , at 22° C. by rapid filtration through glass fiber filters using a Brandel® cell harvester (Biomedical Research and Development Laboratories, Inc., Gaithersburg, Md.). Competition experiments are conducted at equilibrium using 1.0 nM [^3 H]OT and varying the concentration of the displacing agents. The concentrations of agent displacing 50% of [^3 H]OT at its sites (IC50) are calculated by a computer assisted LUNDON-2 program (LUNDON SOFTWARE INC., Ohio, USA).

The next assay has as its system Vasopressin V1. The experiment in a line: Vasopressin V1 Antagonist Activity in Conscious Rats (vasopressin vasopressor response). The format is in vivo, rat. As to conditions: 10 mg/kg i.v. How it is done: Vasopressin V1 Antagonist Activity in Conscious Rats
Conscious rats are restrained in a supine position with elastic tape. The area at the base of the tail is locally anesthetized by subcutaneous infiltration with 2% procaine (0.2 ml). Using aseptic technique the ventral caudal tail artery is isolated and a cannula made of PE 10 and 20 (heat-fused) tubing is passed into the lower abdominal aorta. The cannula is secured, heparinized (1000 i.u./cc), sealed and the wound closed with one or two stitches of Dexon 4-0. The caudal vein is also cannulated in the same manner for intravenous drug administration. The duration of the surgery is approximately 5 minutes. Additional local anesthesia (2% procaine or lidocaine) is provided as needed.
The animals are placed in plastic restraining cages in an upright position. The cannula is attached to a Statham P23Db pressure transducer and pulsatile blood pressure is recorded. […] The vasopressin injections are repeated 30,60,90,120,180,240 and 300 min. later. Percentage of antagonism by the compound is calculated using the pre-drug vasopressin vasopressor response as 100%.

Another assay has as its system Vasopressin V2. Nature of the assay: Vasopressin V2 Antagonist Activity in Conscious Hydrated Rats. The format is in vivo, rat. As to conditions: AVP 0.4 μg/kg i.p. How it is done: Vasopressin V2 Antagonist Activity in Conscious Hydrated Rats
Conscious hydrated rats are treated with compounds under study from 0.1 to 100 mg/kg orally or vehicle. Two to four rats are used for each compound. One hour later, arginine vasopressin (AVP, antidiuretic hormore, ADH) dissolved in peanut oil is administered at 0.4 μg/kg intraperitoneally. Two rats in each test would not receive arginine vasopressin but only the vehicle (peanut oil) to serve as water-loading control. Twenty minutes later each rat is given 30 mL/kg of deionized water orally by gavage and is placed individually in a metabolic cage equipped with a funnel and a graduated glass cylinder to collect urine for four hours. Urine volume is measured and osmolality analyzed by use of a Fiske One-Ten osmometer (Fiske Assoc., Norwood, Mass., USA). Urinary sodium, potassium, and chloride are analyzed by use of ion-specific electrodes in a Beckman E3 (Electrolyte 3) Analyzer.

Usually inhibition stands for the relative decrease from the control value, in per cent. Turning to `O=C(c1ccc([N+](=O)[O-])cc1)N1Cc2ccc(C(=O)C(F)(F)F)n2Cc2ccccc21` [Example 451, 10,11-Dihydro-10-(4-nitrobenzoyl)-[3-(trifluoroacetyl)]-5H-pyrrolo[2,1-c][1,4]benzodiazepine], the inhibition at 10 µM on oxytocin receptors (dose 10 μM, [3H]oxytocin) was found to be 43%.
Same read-out and setting: with `O=C(c1ccc([N+](=O)[O-])cc1Cl)N1Cc2ccc(C(=O)C(F)(F)F)n2Cc2ccccc21` [Example 452, 10,11-dihydro-10-(2-chloro-4-nitro-benzoyl)[3-(trifluoroacetyl)]-5H-pyrrolo[2,1-c][1,4]benzodiazepine] the figure was 36%.
Usually IC50 stands for the concentration that inhibits the measured activity by half. Low readings indicate greater potency, high ones weaker potency. Consider `COc1cc(C(=O)N2Cc3cccn3Cc3ccccc32)ccc1[N+](=O)[O-]` [Example 455, 10,11-Dihydro-10-(3-methoxy-4-nitrobenzoyl)-5H-pyrrolo[2,1-c][1,4]benzodiazepine], for which the concentration for half-maximal inhibition (IC50) at oxytocin receptors was determined as 2.9 µM. For the same compound, on oxytocin receptors (dose 10 μM, [3H]oxytocin), testing at 10 µM gave an inhibition of 75%.
Taken in the same sequence, the figures for `COc1cc(C(=O)N2Cc3cccn3Cc3ccccc32)ccc1N` [Example 460, 10,11-Dihydro-10-(4-amino-3-methoxybenzoyl)-5H-pyrrolo[2,1-c][1,4]benzodiazepine] were 3.1 µM and 77%.
On to `Nc1ccc(C(=O)N2Cc3ccc(C(=O)C(F)(F)F)n3Cc3ccccc32)cc1` [Example 462, 10,11-dihydro-10-(4-aminobenzoyl)[3-(trifluoroacetyl)]-5H-pyrrolo[2,1-c]-[1,4]benzodiazepine], for which the inhibition at 10 µM on oxytocin receptors (dose 10 μM, [3H]oxytocin) was 14%.
`CCOC(=O)c1ccc2n1Cc1ccccc1N(C(=O)c1ccc(N)c(C)c1)C2` [Example 463, ethyl 10,11-dihydro-10-(4-amino-3-methylbenzoyl)-5H-pyrrolo[2,1-c]-[1,4]benzodiazepine-3-carboxylate] yielded an IC50 on oxytocin receptors of 8.5 µM. In addition, 10 µM produced 55% inhibition on oxytocin receptors (dose 10 μM, [3H]oxytocin).
The corresponding values for `CCOC(=O)c1ccc2n1Cc1ccccc1N(C(=O)c1ccc(N)cc1)C2` [Example 464, ethyl 10,11-dihydro-10-(4-aminobenzoyl)-5H-pyrrolo[2,1-c][1,4]benzodiazepine-3-carboxylate] are 2.4 µM and 71%.
`Cc1ccc(F)cc1C(=O)Nc1ccc(C(=O)N2Cc3cccn3Cc3ccccc32)cc1` [Example 465, N-[4-(5H-Pyrrolo[2,1-c][1,4]benzodiazepin-10(11H)-ylcarbonyl)phenyl]-5-fluoro-2-methylbenzamide]: in the assay with Vasopressin V1, the “Max. % Inhibition” value was determined as 85% and the “Time (of max. % inhibition)” value is on record as 90 min. For the same compound, the 50% inhibitory concentration (IC50) on oxytocin receptors was 0.033 µM. Besides, testing at 10 µM at oxytocin receptors (dose 10 μM, [3H]oxytocin) gave an inhibition of 93%. For the same compound, in the assay with Vasopressin V2 (10 mg/kg orally), the Osmolality is given as 361 mOsm/kg and the “Urine Volume” value is on record as 21.8 ml/4 hrs.
In turn, `CCOC(=O)c1ccc2n1Cc1ccccc1N(C(=O)c1ccc(NC(=O)c3ccc(Cl)cc3Cl)cc1)C2` [Example 596, Ethyl 10-[4-[(2,4-dichlorobenzoyl)amino]benzoyl]-10,11-dihydro-5H-pyrrolo[2,1-c][1,4]benzodiazepine-3-carboxylate] showed an IC50 at oxytocin receptors of 4 µM. The same compound registered an inhibition at 10 µM on oxytocin receptors (dose 10 μM, [3H]oxytocin) of 86%. Further, in the assay on Vasopressin V2 (10 mg/kg orally), the Osmolality turned out to be 1347 mOsm/kg and the “Urine Volume” value is given as 2.8 ml/4 hrs.
By % Inhibition is commonly meant the drop in the measured response relative to a control, in per cent. A lower % Inhibition goes with a weak effect. At oxytocin receptors, “N-[4-(4H-Pyrazolo[5,1-c][1,4]benzo-diazepin-5(10H)-ylcarbonyl)phenyl]-2-methoxybenzeneacetamide [Example 215]” registered an IC50 of 0.57 µM. The “% Inhibition at 10 μM” value at oxytocin receptors (dose 10 μM, [3H]oxytocin) turned out to be 74%. Also, in the assay on Vasopressin V2 (30 mg/kg orally), the Osmolality is recorded as 1520 mOsm/kg and the “Urine Volume” value turned out to be 0.7 ml/4 hrs.

These data come from patent US5624923A, “Tricyclic diazepine vasopressin antagonists and oxytocin antagonists” (priority 1995, dated 1997).
